Row | Compound | melting point [°C]
1 | CC(CO)c1ccccc1 (stereo not drawn) | -13
2 | CC(C)=NNC(N)=O | 182
3 | Cc1cc(CCl)nn1C | 63 to 66
4 | O=C(CBr)c1ccc(F)c(F)c1 | 28 to 30
5 | OCC1OC(c2ccccc2)OC1CO (single isomer, unassigned; (+)) | 69 to 74
6 | CCCC(C)I (stereo not drawn) | -50
7 | CCCCCCCS | -43
8 | COc1ccc(C/C(=N\O)C(=O)O)cc1 | 159
9 | CCCCCCC(O)CCCCCCCCCCC(=O)O (stereo not drawn) | 77.8
10 | N#CC(=Cc1cccnc1)C1N=c2ccccc2=N1 | 229
11 | CCOC(=O)C=C(C)N | 33 to 35
12 | CC(C)c1cc(C(C)C)c(S(=O)(=O)n2cncn2)c(C(C)C)c1 | 111
13 | ON=C(Cc1ccccc1)C(Cc1ccccc1)=NO | 193
14 | N#Cc1conc1N | 140
15 | C=C1C2CCC3C(CCC4C5(C)CCCC43C3OCCN3C5)(C2)C1O (stereo not drawn) | 120
16 | COc1ccc(C23C(=C(c4ccccc4)c4ccccc4)C4CC2C3(C)C4(C)C)cc1 (stereo not drawn) | 124
17 | COC(=O)c1ccccc1[N+](=O)[O-] | -13
18 | CCCCCCCCCCC(=O)CCCCC | 37
19 | CCCOCOCCC | -97.3
20 | O=C(O)CCCCCCCCCCCCCCO | 97 to 99
21 | OC(CCl)c1ccc(Cl)cc1Cl (stereo not drawn) | 48 to 52
22 | N#Cc1cc(C#N)c(C#N)cc1C#N | 267 to 270
23 | CCCCc1ccc(/N=N/c2ccc(OC(=O)CC)cc2)cc1 | 84 to 87
24 | CCCCCCCCCCCCCCCC(C)O (stereo not drawn) | 54
25 | Br/C=C/Br | -6.5
26 | NNC(=O)CNc1nc(N)n[nH]1 | 225

Row | Compound | melting point [°C]
27 | Nc1ccc(CCC(=O)O)cc1 | 134
28 | O=C(O)c1n[nH]c2ccccc12 | 259 to 262
29 | CC(=C(C#N)C#N)c1ccc(Cl)cc1 | 93
30 | NC(=S)c1cccnc1 | 185 to 190
31 | CC(C)NNC(=O)c1ccncc1 | 150
32 | CC(C)(C)OC(=O)N[C@@H](Cc1ccc(Cl)cc1Cl)C(=O)O | 132
33 | COC(=O)c1sc(C(C)(C)C)cc1N | 94 to 95
34 | C[C@@]12CCC=C1[C@@H]1CC[C@H]3CC(=O)CC[C@]3(C)[C@H]1CC2 | 115 to 117
35 | NS(=O)(=O)c1ccccc1[N+](=O)[O-] | 191
36 | C1COCCOCCOCCO1 | 16
37 | Brc1ccc(Oc2ccccc2)c(Br)c1 | < 20
38 | CC(=O)Nc1ccc(O)cc1 | 169
39 | CC(=O)OCC1OC(S)C(OC(C)=O)C(OC(C)=O)C1OC(C)=O (stereo not drawn) | 114 to 119
40 | CCOC(O)C(Cl)(Cl)Cl (stereo not drawn) | 56.5
41 | CN(C)c1ccc(C=CC#N)cc1 | 165 to 168
42 | CC(=O)C(Cl)C(C)=O | -15
43 | C#CC1(O)CCC2C3CCC4CC5(CCC4(C)C3CCC21C)OCCO5 (stereo not drawn) | 197 to 199
44 | O=C(C=Cc1ccc(O)cc1)c1ccccc1 | 184
45 | Cc1cc(N)on1 | 83
46 | CCOC(=O)c1ccc(COC(C)=O)o1 | 42.3
47 | C1CSC1 | -73.2
48 | O=C(O)C1Cc2cc(O)ccc2CN1 (racemic) | 256 to 260
49 | CCCCOC(=O)CC(C)=O | -35.6
50 | Cc1cc(Cl)ccc1OCCCC(=O)O | 100
51 | CCN(CCO)CCCC(C)Nc1ccnc2cc(Cl)ccc12 (stereo not drawn) | 90
52 | N#Cc1ccccc1OCC(O)CNCCNC(=O)Cc1ccc(O)cc1 (stereo not drawn) | 119

Row | Compound | melting point [°C]
53 | NS(=O)(=O)c1cc2c(cc1Cl)NC(C1CC3C=CC1C3)NS2(=O)=O (stereo not drawn) | 234
54 | CCNc1ccc([N+](=O)[O-])cc1[N+](=O)[O-] | 108 to 119
55 | CCC(CC)C(N)CC(=O)O (stereo not drawn) | 213 to 214
56 | O=[N+]([O-])c1c(Br)sc(Br)c1[N+](=O)[O-] | 136
57 | ON=CNc1ccc(Cl)nn1 | 207 to 211
58 | COC(=O)c1ccc(/C=C/c2ccc(C(=O)OC)cc2)cc1 | 235
59 | O=C(O)c1ccc(C(=O)O)o1 | 342
60 | CCCCCCCCCCCCCCCCCCCC1CCCCC1 | 45
61 | CCCCOCCOP(=O)(OCCOCCCC)OCCOCCCC | -70
62 | COC(C)COC(C)CO (stereo not drawn) | -83
63 | O=C(O)[C@@H]1CSCN1C(=O)OCC1c2ccccc2-c2ccccc21 | 156 to 158
64 | CCCCCC(=O)OC | -71
65 | CC(C)(C)OC(=O)N1CC(C(=O)O)C1 | 102
66 | Nc1cc(-c2ccco2)[nH]n1 | 126
67 | CCCCCCCCCCCCCCCC#N | 31
68 | NNC(=S)NCc1cccnc1 | 171 to 173
69 | NC(=O)[C@@H]1CCCC[C@@H]1O (relative stereo) | 115 to 119
70 | CCOCCOC(=O)c1ccccc1C(=O)OCCOCC | 34
71 | CC(C)(C)OC(=O)NCc1ccc(C=O)cc1 | 83 to 84
72 | Cc1cc[nH]c1 | -48.4
73 | CCOC(=O)c1c(NC(=O)CN2CCN(C(=O)OCC)CC2)sc2c1CCCC2 | 122 to 123
74 | CCCC(=O)Nc1ccccc1 | 97
75 | COc1ccc(OC(C)=O)cc1 | 32
76 | ON=C1CCCc2ccccc21 | 103 to 105
77 | O=[N+]([O-])c1ccc(-n2cc[nH]c2=S)cc1 | 232 to 233
78 | CNc1cccc2ccccc12 | 174

Next, values leading:

Row | melting point [°C] | Compound
79 | 61 to 62 | CCOC(=O)c1c(C)c(C(C)=O)c(C)n1C
80 | 157 | COc1cc2cc[nH]c2cc1OC
81 | 292 to 293 | Cn1c2ccccc2n2c(=O)c3cccnc3c(C#N)c12
82 | 159 | Nc1cccc(Cl)c1C(=O)O
83 | 14.5 | Cc1ccc(-c2cccc(C)c2)cc1
84 | 161 | Cc1cccnc1NC(=O)C(F)(F)C(F)(F)C(F)(F)C(F)(F)C(F)(F)C(F)(F)C(F)(F)C(F)(F)F
85 | 218 to 222 | Cc1nccc(O)c1OCc1ccc(Cl)cc1Cl
86 | 159 | Cc1ccc(S(=O)(=O)N2CCCN(S(=O)(=O)c3ccc(C)cc3)CC(=O)NCCCNC(=O)C2)cc1
87 | 161 | O=C(O)C#Cc1cc(Br)cc(/C=C/C(=O)O)c1
88 | 49 | Cc1cc(Br)ccc1N=C=O
89 | 30 | Nc1ccc(OC(F)(F)F)c(Cl)c1
90 | 40 | O=C(Cl)c1cc(Cl)cc(Cl)c1
91 | 127 to 129 | Cc1onc(-c2c(F)cccc2Cl)c1C(N)=O
92 | 103 to 104 | O=Cc1csc(-c2cccc(Cl)c2)n1
93 | 102 | COc1ccc(C#N)c(Cl)c1OC
94 | 316 | O=C1NC(=S)SC1=Cc1cccc(C=C2SC(=S)NC2=O)c1
95 | 268 to 269 | C/C(=N\c1ccccc1O)c1c(O)c2ccccc2n(-c2ccccc2)c1=O
96 | 60 | c1ccc(COc2cccc3[nH]ccc23)cc1
97 | 292 | O=C(O)c1cc(I)c(I)c(I)c1
98 | 113 to 115 | Fc1c(F)c(-c2c(F)c(F)c(Br)c(F)c2F)c(F)c(F)c1Br
99 | 210 | Cc1c(C)c(C)c(C(=O)O)c(C)c1C
100 | 162 to 163 | Cc1n[nH]c2c1c(=O)n(-c1ccccc1)c1ccccc21
101 | 205 to 208 | COc1cc(C(c2c(O)cc(C)oc2=O)c2c(O)cc(C)oc2=O)ccc1O
102 | 114 to 119 | c1ccc(-c2sc(-c3ccccc3)c3ccccc23)cc1
103 | 294 | O=C1C(c2ccc(C3=[N+]([O-])c4cc([N+](=O)[O-])ccc4C3=O)cc2)=[N+]([O-])c2cc([N+](=O)[O-])ccc21
104 | 154 to 156 | Cn1c(C(=O)O)cc2sccc21
105 | 139 to 140 | O=c1c(Cl)c(Cl)cnn1-c1ccc(C(F)(F)F)cc1
106 | 32 | Nc1c(Cl)cc(OC(F)(F)F)cc1Cl

Row | melting point [°C] | Compound
107 | 143 | CCOC(=O)C1=C(C)Nc2ccccc2S1
108 | 155 to 158 | NS(=O)(=O)c1cccc(Br)c1
109 | 81 to 83 | Cc1ccc(-n2c(C)cc(C(=O)CCl)c2C)cc1
110 | 131 | CC(=O)c1cc(Br)cc([N+](=O)[O-])c1O
111 | 185 | COc1cc(-c2coc3cc(O)c(OC)c(O)c3c2=O)cc(O)c1OC
112 | 62 | COc1cc(C=O)ccc1F
113 | 210 to 212 | Cc1ccc(O)c(C)n1
114 | 27 to 30 | CCC1OC(=O)C(O)=C1C (stereo not drawn)
115 | 217 to 220 | O=C(O)c1ccc(Sc2ccc(Cl)cc2)c([N+](=O)[O-])c1
116 | 143 to 146 | Cc1ccc(C=CC(=O)c2cccc([N+](=O)[O-])c2)cc1
117 | 136 to 139 | COC(=O)c1sc2scc(C)c2c1C
118 | 62.1 | Cc1cc(O)c(C(C)(C)C)cc1C(C)(C)C
119 | 143 to 147 | O=C(O)c1cc(F)c(F)c(O)c1F
120 | 90 | Cc1c(C)c(C)c2c(c1C)CC2(C)O (stereo not drawn)
121 | 157 to 158 | CCOC(=O)c1sc2nc(C)cc(C)c2c1N
122 | 176 to 178 | COc1ccc(-c2ccc(C(=O)O)o2)cc1
123 | 191 | Cc1ccc(C(=O)C2=NOC3C(=O)N(c4cc(Cl)ccc4Cl)C(=O)C23)cc1 (stereo not drawn)
124 | 64 | CCOC(=O)COc1cc(Cl)c(Cl)cc1Cl
125 | 251 to 252 | C/C(=N\c1cc(C)ccc1O)c1c(O)c2ccccc2n(-c2ccccc2)c1=O
126 | 90 | O=[N+]([O-])c1cc(C(F)F)c(Nc2ncc(C(F)(F)F)cc2Cl)c([N+](=O)[O-])c1
127 | 78.5 | Cc1cc(C)c(CC#N)c(C)c1
128 | 74 | CC(=O)n1c(C)c(C)c2ccccc21
129 | 222 | COc1ccc(-c2csc(/C(C#N)=C/c3ccccc3Cl)n2)cc1
130 | 179 | CN1Cc2c(N)cccc2C(c2ccccc2)C1 (stereo not drawn)
131 | 230 | O=C1CNC(=S)N1
132 | 189 | CC(=O)N1C(=O)/C(=C(\C#Cc2ccccc2)C(=O)c2ccccc2)c2ccccc21
133 | 110 to 111 | COC(=O)c1cc2cc(Br)ccc2s1

Source: a melting point compilation (Tetko et al.)
